# Results from ChEMBL document CHEMBL5055643, “Sophoraflavanone G Resensitizes ABCG2-Overexpressing Multidrug-Resistant Non-Small-Cell Lung Cancer Cells to Chemotherapeutic Drugs” (J Nat Prod, 2021).
# Key:
# [1] = Cytotoxicity against ABCG2-overexpressing human HEK293/482R cells assessed as cell viability at 1 to 5 uM measured after 72 hrs by CCK8 assay; type: ADME, cell-based; conditions: ABCG2-overexpressing HEK293/482R cells, dose 1-5 µM, read-out: Activity
# HEK293 [2] = assay: Chemo-sensitizing activity against ABCG2-overexpressing human HEK293/482R cells assessed as reversal fold at 2 uM measured after 72 hrs in presence of mitoxatrone by CCK8 assay relative to control; type: functional
# ABCG2 [3] = assay: Resistance factor, ratio of IC50 for ABCG2-overexpressing human HEK293/482R cells to IC50 for human HEK293 cells; type: ADME; conditions: read-out: Ratio IC50
# A549 [4] = assay: Chemo-sensitizing activity against human A549 cells assessed as reversal fold at 5 uM measured after 72 hrs in presence of topotecan by CCK8 assay relative to control; type: functional
# ABCG2 [5] = molecular target: T1, ABCG2 (Homo sapiens, UniProt Q9UNQ0); assay: Inhibition of ABCG2 in mitoxantrone-selected ABCG2-overexpressing human NCI-H460/MX20 cells assessed as increase in intracellular mitoxantrone accumulation at 20 uM incubated for 1 hr in presence of mitoxantrone by flow cytometry; type: cell-based; conditions: probe mitoxantrone
# T1 sequence (Q9UNQ0 whole entry): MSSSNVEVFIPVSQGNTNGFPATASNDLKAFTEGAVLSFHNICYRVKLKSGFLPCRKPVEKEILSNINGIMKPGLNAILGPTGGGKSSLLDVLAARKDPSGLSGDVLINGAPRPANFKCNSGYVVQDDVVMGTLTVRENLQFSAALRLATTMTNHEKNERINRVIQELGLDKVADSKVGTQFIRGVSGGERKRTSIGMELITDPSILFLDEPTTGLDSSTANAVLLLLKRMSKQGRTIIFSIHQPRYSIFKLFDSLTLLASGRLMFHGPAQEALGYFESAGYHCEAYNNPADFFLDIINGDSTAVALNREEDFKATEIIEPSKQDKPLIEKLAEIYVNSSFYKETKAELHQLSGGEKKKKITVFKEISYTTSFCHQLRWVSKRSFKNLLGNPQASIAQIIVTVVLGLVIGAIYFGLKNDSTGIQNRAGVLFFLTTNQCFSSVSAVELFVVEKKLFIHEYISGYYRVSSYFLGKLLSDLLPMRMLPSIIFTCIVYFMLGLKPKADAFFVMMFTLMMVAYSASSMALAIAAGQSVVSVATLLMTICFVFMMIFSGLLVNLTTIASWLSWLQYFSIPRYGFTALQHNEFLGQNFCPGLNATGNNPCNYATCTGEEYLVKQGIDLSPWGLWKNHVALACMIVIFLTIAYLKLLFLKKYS
# A549 [6] = assay: Chemo-sensitizing activity against becatecarin-selected ABCG2-overexpressing human A549/Bec150 cells assessed as reversal fold at 1 uM measured after 72 hrs in presence of mitoxantrone by CCK8 assay relative to control; type: functional
# HEK293 [7] = assay: Chemo-sensitizing activity against ABCB1-overexpressing human HEK293/MDR19 cells assessed as reversal fold at 5 uM measured after 72 hrs in presence of vincristine by CCK8 assay relative to control; type: functional
# HEK293 [8] = assay: Chemo-sensitizing activity against ABCG2-overexpressing human HEK293 cells assessed as reversal fold at 1 uM measured after 72 hrs in presence of topotecan by CCK8 assay relative to control; type: functional
# NCI-H460 [9] = assay: Chemo-sensitizing activity against mitoxantrone-selected ABCG2-overexpressing human NCI-H460/MX20 cells assessed as reversal fold at 1 uM measured after 72 hrs in presence of SN-38 by CCK8 assay relative to control; type: functional
# HEK293 [10] = assay: Chemo-sensitizing activity against human HEK293 cells assessed as reversal fold at 2 uM measured after 72 hrs in presence of mitoxatrone by CCK8 assay relative to control; type: functional
# OVCAR-8 [11] = assay: Chemo-sensitizing activity against human OVCAR-8 cells assessed as reversal fold at 2 uM measured after 72 hrs in presence of colchicine by CCK8 assay relative to control; type: functional
# NCI-H460 [12] = assay: Chemo-sensitizing activity against mitoxantrone-selected ABCG2-overexpressing human NCI-H460/MX20 cells assessed as reversal fold at 1 uM measured after 72 hrs in presence of topotecan by CCK8 assay relative to control; type: functional
# HEK293 [13] = assay: Chemo-sensitizing activity against human HEK293 cells assessed as reversal fold at 1 uM measured after 72 hrs in presence of SN-38 by CCK8 assay relative to control; type: functional
# KB-V1 = assay: Chemo-sensitizing activity against ABCB1-oveexpressing human KB-V1 cells assessed as reversal fold at 2 uM measured after 72 hrs in presence of colchicine by CCK8 assay relative to control; type: functional
# OVCAR-8 [14] = assay: Chemo-sensitizing activity against human OVCAR-8 cells assessed as reversal fold at 2 uM measured after 72 hrs in presence of vincristine by CCK8 assay relative to control; type: functional
# NCI-H460 [15] = assay: Chemo-sensitizing activity against human NCI-H460 cells assessed as reversal fold at 2 uM measured after 72 hrs in presence of mitoxantrone by CCK8 assay relative to control; type: functional
# OVCAR-8 [16] = assay: Chemo-sensitizing activity against human OVCAR-8 cells assessed as reversal fold at 5 uM measured after 72 hrs in presence of paclitaxel by CCK8 assay relative to control; type: functional
# HEK293 [17] = assay: Chemo-sensitizing activity against ABCG2-overexpressing human HEK293 cells assessed as reversal fold at 5 uM measured after 72 hrs in presence of topotecan by CCK8 assay relative to control; type: functional
# KB 3-1 [18] = assay: Chemo-sensitizing activity against human KB 3-1 cells assessed as reversal fold at 5 uM measured after 72 hrs in presence of colchicine by CCK8 assay relative to control; type: functional
# NCI-H460 [19] = assay: Chemo-sensitizing activity against human NCI-H460 cells assessed as reversal fold at 5 uM measured after 72 hrs in presence of SN-38 by CCK8 assay relative to control; type: functional
# ABCG2 [20] = molecular target: T1, ABCG2; assay: Inhibition of ABCG2 in becatecarin-selected ABCG2-overexpressing human A549/Bec150 cells assessed as increase in intracellular mitoxantrone accumulation at 20 uM incubated for 1 hr in presence of mitoxantrone by flow cytometry; type: cell-based; conditions: probe mitoxantrone
# NCI/ADR-RES = assay: Chemo-sensitizing activity against ABCB1-overexpressing human NCI/ADR-RES cells assessed as reversal fold at 5 uM measured after 72 hrs in presence of vincristine by CCK8 assay relative to control; type: functional
# HEK293 [21] = assay: Chemo-sensitizing activity against human HEK293 cells assessed as reversal fold at 2 uM measured after 72 hrs in presence of SN-38 by CCK8 assay relative to control; type: functional
# NCI-H460 [22] = assay: Cytotoxicity against mitoxantrone-selected ABCG2-overexpressing human NCI-H460/MX20 cells assessed as reduction in cell viability measured after 72 hrs by CCK8 assay; type: ADME, cell-based; conditions: NCI-H460, 72 h
# A549 [23] = assay: Chemo-sensitizing activity against human A549 cells assessed as reversal fold at 2 uM measured after 72 hrs in presence of topotecan by CCK8 assay relative to control; type: functional
# KB 3-1 [24] = assay: Chemo-sensitizing activity against human KB 3-1 cells assessed as reversal fold at 2 uM measured after 72 hrs in presence of vincristine by CCK8 assay relative to control; type: functional
smiles,measurement,setting,value
C=C(C)[C@H](CC=C(C)C)Cc1c(O)cc(O)c2c1O[C@H](c1ccc(O)cc1O)CC2=O [SOPHORAFLAVANONE G],"viability at 72 h, up to 5 µM",[1],> 90%
same,fold change (FC),HEK293 [2],3.2
same,selectivity ratio,ABCG2 [3],1.4
same,fold change (FC),A549 [4],1.4
same,"inhibition at 1 h, 20 µM",ABCG2 [5],100%
same,fold change (FC),A549 [6],2.7
same,fold change (FC),HEK293 [7],2.2
same,fold change (FC),HEK293 [8],1.7
same,fold change (FC),NCI-H460 [9],2.6
same,fold change (FC),HEK293 [10],0.9
same,fold change (FC),OVCAR-8 [11],1
same,fold change (FC),NCI-H460 [12],4.1
same,fold change (FC),HEK293 [13],1
same,fold change (FC),KB-V1,0.9
same,fold change (FC),OVCAR-8 [14],1
same,fold change (FC),NCI-H460 [15],2.4
same,fold change (FC),OVCAR-8 [16],1.1
same,fold change (FC),HEK293 [17],5
same,fold change (FC),KB 3-1 [18],1.1
same,fold change (FC),NCI-H460 [19],2.8
same,"inhibition at 1 h, 20 µM",ABCG2 [20],100%
same,fold change (FC),NCI/ADR-RES,1.1
same,fold change (FC),HEK293 [21],0.9
same,IC50,NCI-H460 [22],22.1 µM
same,fold change (FC),A549 [23],1.2
same,fold change (FC),KB 3-1 [24],1.2
